Laboratory results from patent US12599575B2, “Antimicrobial adjuvant containing biphenyl derivative compound as active ingredient, and uses thereof” (KOREA RESEARCH INSTITUTE OF BIOSCIENCE AND BIOTECHNOLOGY, priority 2021, dated 2026).
“Also recorded” adds a separate entry of the source.

System: Acinetobacter baumannii colistin resistance 357 (R357 strains)
Type: cell-based

For `Cc1cc([N+](=O)[O-])cc(-c2ccc(Cl)cc2)c1O` [PA108], the “cell growth inhibitory effect (respiration rate), PA108 alone” value (PA108 5 μM alone) was “no self cell growth inhibitory effect” and the “bacterial growth inhibitory effect (relative respiration rate) in combination with PMB” value (compound 5 μM + PMB 16 μg/mL, 37° C., 24 hours) was “an activity to improve bacterial susceptibility to a polymyxin-based antibiotic; also recorded: cellular respiration was effectively inhibited”.

With polymyxin B [PMB, reference compound] the “cell growth inhibitory effect (respiration rate), PMB alone” value (PMB 16 μg/mL alone) was “no cell growth inhibitory effect”.
